Measured values reported in patent publication US20230301968A1 (ZEPHAPHARM LTD, priority 2020, published 2023).
Read-outs that look alike come from different tables or passages of the source.

Experiments:
[1] = in vitro; details: human, hepatocytes; for half-life at 1 µM: t½
Protocol: (§1) In each assay, the amount of test compound remaining at each time point was analysed by LC-MS/MS.
(§2) The final incubation volume was 500 µL. […] A positive control compound, ethoxycoumarin, for CYP1A2 (as CYP1A2 substrate) was included. […] The reactions were stopped by transferring 50 µL of incubate to 100 µL acetonitrile containing internal standard at the appropriate time points (0, 5, 10, 20, 40 and 60 min). The termination plates were centrifuged at 2500 rpm at 4° C. for 30 min to precipitate the protein.
(§3) From a plot of In peak area ratio (compound peak area/internal standard peak area) against time, the gradient of the line was determined. Subsequently, half-life (t½) and intrinsic clearance (CLint) were calculated using the equations below: […]

[2] = system: human liver microsomes; details: cited from earlier work
[3] = humans, cited from earlier work
[4] = system: human cryopreserved hepatocytes; assay: in vitro; details: for decrease of flubendazole metabolism in the presence of the inhibitor: cryopreserved human hepatocytes, 1 µM flubendazole, over all inhibitor concentrations tested; for class of CYP1A2 inhibitor of flubendazole metabolism: human hepatocytes ex vivo
Protocol: as §1, §2, §3

| hepatocyte CLint at 1 µM ([1]; CLint) [µL/min/1e6 cells] | half-life at 1 µM [1] [min] | Structure (SMILES) | decrease of flubendazole metabolism in the presence of the inhibitor [4] | class of CYP1A2 inhibitor of flubendazole metabolism [4] | other results |
| --- | --- | --- | --- | --- | --- |
| 25.4 | 54.5 | CCOc1ccc2ccc(=O)oc2c1 |  |  |  |
|  |  | CCC[S+]([O-])c1ccc2[nH]c(NC(=O)OC)nc2c1 (stereo not drawn) [Ricobendazole, albendazole sulfoxide] |  |  | turnover in human liver microsomes [2]: low turnover |
|  |  | Cn1c(=O)c2c(ncn2C)n(C)c1=O [caffeine] |  |  | elimination half-life ([3]; with furafylline): 50 h; elimination half-life ([3]; without furafylline): 5 to 7 h |
| 136 ± 8.14 | 10.2 | O=c1ccc2ccc(O)cc2o1 [Umbelliferone, umbelliferone] |  |  | hepatocyte CLint at 1 µM ([1]; intrinsic clearance): 129 ± 2.93 µL/min/1e6 cells; CLint ([4]; human, hepatocytes, 1 µM): 131±9.59 µL/min/10^6 cells; t½ ([4]; human, hepatocytes, 1 µM): 10.5 min |
|  |  | COCCCC/C(=N\OCCN)c1ccc(C(F)(F)F)cc1 [Fluvoxamine, fluvoxamine] | at least 2.2 fold | strong (inhibits intrinsic clearance (CLint) of flubendazole in human hepatocytes ex vivo by ≥five-fold) |  |
|  |  | Cc1nc2c([nH]1)c(=O)n(C)c(=O)n2Cc1ccco1 [Furafylline, furafylline] | at least 4.2 fold | strong (inhibits intrinsic clearance (CLint) of flubendazole in human hepatocytes ex vivo by ≥five-fold) | increase in elimination half-life of caffeine ([3]; Tarrus et al., 1987): 7-10 fold |
